Results: patent publication US4360665A, “4"-N-(Substituted)-apramycin antibiotic derivatives and intermediates therefor” (Eli Lilly and Company, priority 1981, dated 1982)
Converted amounts (≈) assume the structure as drawn.

Experiments:
Assay in all cases: MIC by standard agar dilution test
Assay type in all cases: cell-based
[1] = system: Pseudomonas aeruginosa SF-2; settings: SF2, Table II, read-out: Minimum Inhibitory Concentration
Excerpt: (§1) The antibacterial activity of the antibiotic compounds of this invention is illustrated by the following in vitro and in vivo test data obtained with representative compounds. In Tables I and II, the minimum inhibitory concentration (MIC) for representative compounds against a wide range of gram-positive and gram-negative bacteria are presented. The MIC values were obtained by the standard agar dilution test.

[2] = system: Serratia marcescens X99; settings: X99, Table II, read-out: Minimum Inhibitory Concentration
Excerpt: as §1

[3] = system: Enterobacter cloacae EN453; settings: Table II, read-out: Minimum Inhibitory Concentration
Excerpt: as §1

[4] = system: Pseudomonas aeruginosa PI23; settings: Table II, read-out: Minimum Inhibitory Concentration
Excerpt: as §1

[5] = system: Enterobacter aerogenes EB6; settings: Klebsiella aerogenes; Table II; Enterobacter aerogenes EB6; agar dilution; read-out: Minimum Inhibitory Concentration
Excerpt: as §1

[6] = system: Serratia marcescens SE3; settings: SE3, Table II, read-out: Minimum Inhibitory Concentration
Excerpt: as §1

[7] = system: Pseudomonas aeruginosa X48; settings: Table II, read-out: Minimum Inhibitory Concentration
Excerpt: as §1

[8] = system: Serratia marcescens SE2; settings: Table II, read-out: Minimum Inhibitory Concentration
Excerpt: as §1

[9] = system: Pseudomonas aeruginosa X239; settings: X239, Table II, read-out: Minimum Inhibitory Concentration
Excerpt: as §1

[10] = system: Proteus morganii PR1; settings: Morganella morganii, Table II, read-out: Minimum Inhibitory Concentration
Excerpt: as §1

[11] = system: Pseudomonas aeruginosa 4276; settings: Table II, read-out: Minimum Inhibitory Concentration
Excerpt: as §1

[12] = system: Pseudomonas aeruginosa Ps9; settings: Table II, read-out: Minimum Inhibitory Concentration
Excerpt: as §1

[13] = system: Klebsiella pneumoniae KL2; settings: Table II, read-out: Minimum Inhibitory Concentration
Excerpt: as §1

[14] = system: Enterobacter cloacae EB24; settings: Enterobacter cloacae, EB24, read-out: Minimum Inhibitory Concentration
Excerpt: as §1

[15] = system: Proteus inconstans PV25; settings: Providencia alcalifaciens, Table II, read-out: Minimum Inhibitory Concentration
Excerpt: as §1

[16] = system: Proteus rettgeri PR2; settings: Providencia rettgeri, Table II, read-out: Minimum Inhibitory Concentration
Excerpt: as §1

[17] = system: Pseudomonas aeruginosa Ps25; settings: Table II, read-out: Minimum Inhibitory Concentration
Excerpt: as §1

[18] = system: Pseudomonas aeruginosa Ps15; settings: Table II, read-out: Minimum Inhibitory Concentration
Excerpt: as §1

[19] = system: Pseudomonas aeruginosa X528; settings: Table II, read-out: Minimum Inhibitory Concentration
Excerpt: as §1

## CN[C@@H]1[C@@H](O[C@H]2O[C@H](CO)[C@@H](NCc3ccccc3)[C@H](O)[C@H]2O)O[C@H]2C[C@@H](N)[C@@H](O[C@H]3[C@H](O)[C@@H](O)[C@H](N)C[C@@H]3N)O[C@@H]2[C@@H]1O [Test Compound 3, 4"-N-Benzylapramycin]
[1]
  MIC: 128 µg/mL (≈ 203 µM)
[2]
  MIC: 4 µg/mL (≈ 6.35 µM)
[3]
  MIC: 8 µg/mL (≈ 12.7 µM)
[4]
  MIC: > 128 µg/mL
[5]
  MIC: 8 µg/mL (≈ 12.7 µM)
[6]
  MIC: 8 µg/mL (≈ 12.7 µM)
[7]
  MIC: > 128 µg/mL
[8]
  MIC: 16 µg/mL (≈ 25.4 µM)
[9]
  MIC: 128 µg/mL (≈ 203 µM)
[10]
  MIC: 32 µg/mL (≈ 50.8 µM)
[11]
  MIC: > 128 µg/mL
[12]
  MIC: > 128 µg/mL
[13]
  MIC: 8 µg/mL (≈ 12.7 µM)
[14]
  MIC: 4 µg/mL (≈ 6.35 µM)
[15]
  MIC: 64 µg/mL (≈ 102 µM)
[16]
  MIC: > 128 µg/mL
[17]
  MIC: 64 µg/mL (≈ 102 µM)
[18]
  MIC: 128 µg/mL (≈ 203 µM)
[19]
  MIC: > 128 µg/mL
